Measurements reported in patent publication US8067451B2, “Methods and medicaments for administration of ibuprofen” (Horizon Pharma USA, Inc., priority 2006, dated 2011).
Where two headings read alike, the source gives them in different places. One block for each compound: values may come before it.

How the values were obtained:
[1] = Text: where V/F is the apparent volume of distribution, ka is the absorption rate constant, kel is the elimination rate constant and Tlag is the absorption lag time.
clinical = settings: male, human, plasma
[2] = for Famotidine (% control): glass vials
Text: Forced degradation conditions refer to conditions of elevated temperature, or elevated temperature and humidity, intended to accelerate the process of chemical degradation. Forced degradation conditions for a period of time are used to predict the effect of storage under more benign conditions (e.g., room temperature) for a longer period of time.
After grinding, API mixture was stored in glass vials under the conditions indicated.

[3] = Pharmacokinetic drug-drug interaction study of ibuprofen and famotidine in healthy male subjects; settings: for Bioequivalence when administered in combination compared to separate administration: 800 mg ibuprofen and 40 mg famotidine; for Difference of log-transformed AUC(last), alone versus in combination / Difference of log-transformed Cmax, alone versus in combination: bioequivalence test
gastric pH = settings: for Amount by which TID dosing exceeded BID dosing, Gastric pH (24 h), mean of group / Amount by which TID dosing exceeded BID dosing, Upright Gastric pH, mean of group / Mean reduction in time with gastric pH below 3.5, TID compared to BID / Mean reduction in time with gastric pH below 4.0, TID compared to BID: 26.6 mg TID vs 40 mg BID; for Median pH (Upright), by subject / Fraction time pH < 4, by subject / Time pH < 4, by subject: individual subjects; for Fraction time pH < 4, by subject / Time pH < 4, by subject: 24 h; for Patients with 24-hour median gastric pH below 2.5: 13 subjects
Experimental: Thirteen healthy subjects participated in the study.
There was a washout of at least one week between administration of the last dose of Treatment Period 1 and administration of the first dose of Treatment Period 2.
All doses of study medication were administered orally, on an open-label basis. Subjects were prohibited from taking any medications or interventions that decrease gastric acid secretion or neutralize gastric acid, and any medications that are known or suspected to cause dyspepsia or gastrointestinal ulcers, throughout the study period.
(The first day of dosing for each treatment period is designated Study Day 1, and the last day of dosing is designated Study Day […]). Subjects were followed for 14 days after administration of their last dose of study medication.
(§1) For each patient the median pH during a 24 hour period (or subperiod thereof) was calculated. To measure the effect of treatments for a group of individuals, the average or mean of the measured medians for several individuals was determined (i.e., average={[M1+M2 . . . Mx]/X} where “x” is the number of individuals in the group and each “M” is the median for an individual in the group).

[4] = remark: listed apart in the source
Experimental: as §1
Samples were collected prior to initiation of dosing, and prior to administration of the second dose of study medication on Study Day 1 and Study Day 5 during both treatment periods.

intragastric pH = system: intragastric pH
Text: The estimated pharmacodynamic parameters are listed below: Using the pharmacokinetic parameters obtained above together with the pharmacodynamic parameters above, plasma concentrations as well as intragastric pH as a function of time were simulated for various dose regimens.

[5] = fit to mean plasma data of 40 mg Pepcid single dose study
[6] = 26.6 mg TID, 24 h of Study Day 1, all subjects n=13
[7] = 26.6 mg TID, Study Day 1, all subjects
[8] = 26.6 mg TID, Study Day 1, all subjects n=13
[9] = 26.6 mg TID, Study Day 1, normal weight subjects
[10] = 26.6 mg TID, Study Day 1, normal weight subjects n=9
[11] = 40 mg BID, 24 h of Study Day 1, all subjects n=13
[12] = 40 mg BID, Study Day 1, all subjects
[13] = 40 mg BID, Study Day 1, all subjects n=13
[14] = 40 mg BID, Study Day 1, normal weight subjects
[15] = 40 mg BID, Study Day 1, normal weight subjects n=9

V/F (apparent volume of distribution) ([1]; fit to mean plasma data of 40 mg Pepcid single dose bioequivalence study (n=30)): 241.8 L
Tlag (absorption lag time) [1, 5]: 0.3677 h
ka (absorption rate constant) [1, 5]: 0.8133 h⁻¹
kel (elimination rate constant) [1, 5]: 0.2643 h⁻¹
Tmax (clinical; oral): 2.17 ± 0.93 h
half-life (clinical; oral): 3.49 ± 0.35 h
Tmax (clinical; po): 1.67 ± 0.52 h
half-life (clinical; po): 3.66 ± 0.19 h
Famotidine (% control) ([2]; 1 wk 40° C.): 96.1 % control
Famotidine (% control) ([2]; 1 wk 60° C.): 121.0 % control
Famotidine Content (percent of target content) ([2]; 2 weeks at 60° C.): 98%
Famotidine (% control) ([2]; 2 wks 60° C.): 100.1 % control
Bioequivalence when administered in combination compared to separate administration [3]: bioequivalent
Kel (mean ± SD) ([3]; administered alone, single oral dose, 800 mg ibuprofen or 40 mg famotidine): 0.19 ± 0.01
Difference of log-transformed AUC(last), alone versus in combination [3]: −0.034
Difference of log-transformed Cmax, alone versus in combination [3]: −0.08
Plasma accumulation with TID dosing ([4]; 26.6 mg TID vs 40 mg BID, day 5 trough): does not lead to plasma accumulation
Trough plasma concentration of famotidine (mean) ([4]; 26.6 mg TID, Day 1, prior to second dose): 9.7 ng/mL
Trough plasma concentration of famotidine (mean) ([4]; 26.6 mg TID, Day 5, prior to second dose): 15.7 ng/mL
Trough plasma concentration of famotidine (mean) ([4]; 40 mg BID, Day 1, prior to second dose): 10.5 ng/mL
Trough plasma concentration of famotidine (mean) ([4]; 40 mg BID, Day 5, prior to second dose): 15.7 ng/mL
EC50 (Pepcid concentration at one-half of Emax) (intragastric pH; sigmoid Emax fit, plasma concentration vs intragastric pH, one patient): 0.0326 µg/mL
Compound: NC(N)=Nc1nc(CSCCC(N)=NS(N)(=O)=O)cs1 [famotidine, 3-[2-(diaminomethyleneamino)thiazol-4-ylmethylthio]-N-sulfamoyl propionamidine]
Amount by which TID dosing exceeded BID dosing, Gastric pH (24 h), mean of group (gastric pH; all subjects): 0.3 pH Units
Amount by which TID dosing exceeded BID dosing, Upright Gastric pH, mean of group (gastric pH; all subjects): 0.5 pH Units
Mean reduction in time with gastric pH below 3.5, TID compared to BID (gastric pH; all subjects): 19.5 min
Mean reduction in time with gastric pH below 4.0, TID compared to BID (gastric pH; all subjects): 23.1 min
Amount by which TID dosing exceeded BID dosing, Gastric pH (24 h), mean of group (gastric pH; normal weight group): 0.5 pH Units
Amount by which TID dosing exceeded BID dosing, Upright Gastric pH, mean of group (gastric pH; normal weight group): 0.8 pH Units
Mean reduction in time with gastric pH below 3.5, TID compared to BID (gastric pH; normal weight group): 89.3 min
Mean reduction in time with gastric pH below 4.0, TID compared to BID (gastric pH; normal weight group): 89.9 min
Average time below pH 3.5 (gastric pH; [6]): 693.5 min
Average time below pH 4.0 (gastric pH; [6]): 783.4 Minutes
Average Absolute Deviation of 24 hour median gastric pH (gastric pH; [7]): 0.5
Average Absolute Deviation of pH in upright position (gastric pH; [7]): 0.7
Average Absolute Deviation of time below pH 3.5 (gastric pH; [7]): 124.7 min
Average Absolute Deviation of time below pH 4.0 (gastric pH; [7]): 111.9 min
Max-Min of pH values in the upright position (gastric pH; [7]): 2.4 pH units
Max-Min of time below pH 3.5 (gastric pH; [7]): 436 min
Max-Min of time below pH 4.0 (gastric pH; [7]): 459 min
Standard Deviation of 24 hour median gastric pH (gastric pH; [7]): 0.7
Max-Min of 24 hour median gastric pH (gastric pH; [8]): 1.9 pH units
Mean of 24 hour median gastric pH (gastric pH; [8]): 3.6 pH units
Mean of pH values taken in the upright position (gastric pH; [8]): 3.7
Range of 24 hour median gastric pH (gastric pH; [8]): 2.5-4.4
Range of pH values taken in the upright position (gastric pH; [8]): 2.3-4.7
Range of time below pH 3.5 (gastric pH; [8]): 514-950 min
Range of time below pH 4.0 (gastric pH; [8]): 589-1048 Minutes
Average Absolute Deviation of 24 hour median gastric pH (gastric pH; [9]): 0.5
Average Absolute Deviation of time below pH 3.5 (gastric pH; [9]): 116.7 min
Average Absolute Deviation of time below pH 4.0 (gastric pH; [9]): 105.4 min
Average Absolute Deviation of upright pH values (gastric pH; [9]): 0.9
Average time below pH 3.5 (gastric pH; [9]): 662.7 min
Average time below pH 4.0 (gastric pH; [9]): 764.2 Minutes
Max-Min of 24 hour median gastric pH (gastric pH; [9]): 1.9 pH units
Max-Min of time below pH 3.5 (gastric pH; [9]): 436 min
Max-Min of time below pH 4.0 (gastric pH; [9]): 459 min
Max-Min of upright pH values (gastric pH; [9]): 2.4 pH units
Mean of upright pH values (gastric pH; [9]): 3.8
Range of time below pH 3.5 (gastric pH; [9]): 514-950 min
Range of time below pH 4.0 (gastric pH; [9]): 589-1048 Minutes
Range of upright pH values (gastric pH; [9]): 2.3-4.7
Standard Deviation of 24 hour median gastric pH (gastric pH; [9]): 0.7
Mean of 24 hour median gastric pH (gastric pH; [10]): 3.6
Range of 24 hour median gastric pH (gastric pH; [10]): 2.5-4.4
Average time below pH 3.5 (gastric pH; [11]): 713.0 min
Average time below pH 4.0 (gastric pH; [11]): 806.5 Minutes
Average Absolute Deviation of 24 hour median gastric pH (gastric pH; [12]): 0.9
Average Absolute Deviation of pH in upright position (gastric pH; [12]): 1.0
Average Absolute Deviation of time below pH 3.5 (gastric pH; [12]): 169.1 min
Average Absolute Deviation of time below pH 4.0 (gastric pH; [12]): 158.8 min
Max-Min of pH values in the upright position (gastric pH; [12]): 3.3 pH units
Max-Min of time below pH 3.5 (gastric pH; [12]): 706 min
Max-Min of time below pH 4.0 (gastric pH; [12]): 710 min
Standard Deviation of 24 hour median gastric pH (gastric pH; [12]): 1.1
Max-Min of 24 hour median gastric pH (gastric pH; [13]): 3.3 pH units
Mean of 24 hour median gastric pH (gastric pH; [13]): 3.3 pH units
Mean of pH values taken in the upright position (gastric pH; [13]): 3.2
Range of 24 hour median gastric pH (gastric pH; [13]): 1.8-5.1
Range of pH values taken in the upright position (gastric pH; [13]): 1.8-5.1
Range of time below pH 3.5 (gastric pH; [13]): 459-1165 min
Range of time below pH 4.0 (gastric pH; [13]): 514-1224 Minutes
Average Absolute Deviation of 24 hour median gastric pH (gastric pH; [14]): 0.9
Average Absolute Deviation of time below pH 3.5 (gastric pH; [14]): 175.1 min
Average Absolute Deviation of time below pH 4.0 (gastric pH; [14]): 155.7 min
Average Absolute Deviation of upright pH values (gastric pH; [14]): 1.0
Average time below pH 3.5 (gastric pH; [14]): 752.0 min
Average time below pH 4.0 (gastric pH; [14]): 854.1 Minutes
Max-Min of 24 hour median gastric pH (gastric pH; [14]): 2.2 pH units
Max-Min of time below pH 3.5 (gastric pH; [14]): 679 min
Max-Min of time below pH 4.0 (gastric pH; [14]): 510 min
Max-Min of upright pH values (gastric pH; [14]): 2.8 pH units
Mean of upright pH values (gastric pH; [14]): 3.0
Range of time below pH 3.5 (gastric pH; [14]): 486-1165 min
Range of time below pH 4.0 (gastric pH; [14]): 714-1224 Minutes
Range of upright pH values (gastric pH; [14]): 1.8-4.6
Standard Deviation of 24 hour median gastric pH (gastric pH; [14]): 1.1
Mean of 24 hour median gastric pH (gastric pH; [15]): 3.1
Range of 24 hour median gastric pH (gastric pH; [15]): 1.8-4.0
Median pH (Upright), by subject (gastric pH; BID 40 mg): 1.8 pH Units
Fraction time pH < 4, by subject (gastric pH; BID 40 mg): (69.8%)
Time pH < 4, by subject (gastric pH; BID 40 mg): 1005 min
Patients with 24-hour median gastric pH below 2.5 (gastric pH; BID period (40 mg)): three
Difference in Median pH (Upright), TID period vs BID period (gastric pH; Subject 106): 2.2 pH Units
Difference in Median pH, TID period vs BID period (gastric pH; Subject 106): 2.1 pH Units
Difference in Time pH < 4, BID period vs TID period (gastric pH; Subject 106): 268 min
Median pH (Upright), by subject (gastric pH; TID 26.6 mg): 4.0 pH Units
Fraction time pH < 4, by subject (gastric pH; TID 26.6 mg): (51.2%)
Time pH < 4, by subject (gastric pH; TID 26.6 mg): 737 min
Patients with 24-hour median gastric pH below 2.5 (gastric pH; TID period (26.6 mg)): no patients
Emax (maximum intragastric pH) (intragastric pH; sigmoid Emax fit of digitized plasma concentration vs intragastric pH, one patient (Echizen and Ishizaki)): 7.80
E0 (intragastric pH at time zero) (intragastric pH; sigmoid Emax fit, one patient): 1.88
γ (shape factor) (intragastric pH; sigmoid Emax fit, one patient): 4.80

Tmax (clinical; oral): 2.25 ± 1.89 h
Tmax (clinical; po): 1.58 ± 0.49 h
Bioequivalence when administered in combination compared to separate administration [3]: bioequivalent
Difference of log-transformed AUC(last), alone versus in combination [3]: 0.02
Difference of log-transformed Cmax, alone versus in combination [3]: 0.02
Compound: CC(C)Cc1ccc(C(C)C(=O)O)cc1 (stereo not drawn) [ibuprofen, 2-(p-isobutylphenyl) propionic acid]
